Key:
[1] = tested on: human PBMCs activated with anti-CD3/anti-CD28; test: PBMC:MSC co-culture, proliferation and cell composition after 72 hours of activation (FACS after CFSE labeling); conditions: MSCs in co-culture, Prednisolone 125 nM
Procedure: (§1) Freshly isolated human PBMCs, pooled from three donors, were activated with anti-CD3/anti-CD28 at 10 μg/ml and 5 μg/ml respectively in presence of MSCs ex vivo for 24 or 72 hours. Following activation, cells were analysed for effects on cellular composition after 24 hours and for effects on cellular composition and cell proliferation using CFSE after 72 hours. In addition, supernatants collected after 24 hours of activation were analysed for cytokine levels using Luminex.
(§2) Peripheral Blood Mononuclear Cells (PBMCs) were isolated from leucocyte concentrate from three different donors (acquired from Blodcentralen, Lunds Universitetssjukhus, Lund, Sweden) through gradient centrifugation at 400×g for 40 minutes using Ficoll. Red blood cells (RBCs) were lysed using BD Pharmlyse buffer 10× diluted in milliQ water for 3 minutes at room temperature (RT). Cells were washed and the isolated PBMCs were pooled. Cell concentration was determined using a Scepter cell counter (Millipore Merck, MA. USA). Cells were diluted to 1×10^7 cells/ml in PBS. Pooled PBMCs were split into 2 different tubes. Cells in tube 1 was stained with CFSE at 5 μM for 5 minutes (dark, RT). CFSE stained cells were washed with an equal volume of FBS to stop the reaction and washed again with PBS. Cells in tube two was left in PBS.
(§3) MSCs (donor 1, donor 2, donor 3, and AD-MSC control cells) were provided in 8 different tubes, two for each cell type (in different medias (M3 and M4). All cells (PBMCs and MSCs) were diluted in the two different cell culture media (M3 and M4) to a final concentration of 2*10^6 cells/ml. Media was supplemented with anti-CD28 at 5 μg/ml. Cells were added to anti-CD3 (1 μg/well, 100 μl/well) coated U bottom cell culture plates according to the layout below, 200 μl/well in different PBMC:MSC ratios (1:10, 1:5, 1:2.5, 1:0 and 0:1) with a total amount of cells at 4*10^5 cells/well.
(§4) Included in the assay were also controls (stimulated and unstimulated PBMCs) and two reference drugs, e.g. cyclosporine (CsA) and Prednisolone (Pred). When plating controls, cells were spun down and diluted in M3 or M4 at 4*10^6 cells/ml, with a total amount of cells at 4*10^5 cells/well. 100 μl PBMCs were added per well. CsA was added at a final concentration of 10 μg/ml and Prednisolone was added at a final concentration of 125 nM (700 μl/well). Medium was added to unstimulated control wells (700 μl/well). Cells were incubated for 24 or 72 hours at 37° C., 5% CO2. See also FIG. 19.
After 72 hours of incubation, CFSE stained cells were stained with CD4, CD8, CD80, CD206 and CD163 in staining buffer. Briefly, cells were transferred to V bottom plates, centrifuged at 360×g for 2 min. Cells were washed in PBS, centrifuged at 360×g for 2 min at 4° C. Supernatant was flicked off and surface markers were added. Cells were incubated at +4° C. for 20 minutes. After incubation, cells were washed 1× in PBS, centrifuged at 360×g for 2 min at 4° C. Cells were resuspended in PBS and acquired using the Attune Nxt flow cytometer. Compensation was performed using beads—AbC Total Compensation capture beads and negative beads for surface markers. For CFSE compensation, newly CFSE stained cells were used. Since compensation was done using both beads and cells, FSC and SSC were changed and adjusted to beads or cells. […]
Graphs were performed using Prism 8 for Mac OS X (GraphPad Software, San Diego, CA, USA). […] The inhibitory effect of MSCs on PBMC proliferation was calculated according to the two formulas below: […]

[2] = tested on: human PBMCs activated with anti-CD3/anti-CD28; test: PBMC:MSC co-culture, cell composition after 24 hours of activation (FACS); conditions: Prednisolone 125 nM
Procedure: as §1, §2, §3, §4
Following 24 hours of incubation, cells in FACS/Luminex plates were stained with antibodies detecting CD73, CD4, CD8, CD80, CD206, CD163 and PD-1 in staining buffer (PBS supplemented with 1% BSA). Briefly, cells were transferred to V bottom plates and centrifuged at 360×g for 2 min. Supernatant was transferred to a storage plate and put in −20° C. until analysis using Luminex. Cells were washed in PBS, centrifuged at 360×g for 2 min at 4° C. Supernatant was flicked off and antibodies against surface markers were added. Cells were incubated at +4° C. for 20 minutes (dark). After incubation, cells were washed 1× in PBS, centrifuged at 360×g for 2 min at 4° C. Cells were resuspended in PBS and acquired using the Attune Nxt flow cytometer. Compensation was performed using beads—AbC Total Compensation capture beads and negative beads. Since compensation was done using beads, FSC and SSC were changed before analysing samples and adjusted to cells. Lasers were not changed after compensation. 150 μl was analysed from each sample.

[3] = tested on: human PBMCs activated with anti-CD3/anti-CD28; test: Cytokine analysis after 24 hours of activation (Luminex); format: cell-based; conditions: stimulated PBMCs, Prednisolone 125 nM
Procedure: Cells were washed and the isolated PBMCs were pooled. […] Pooled PBMCs were split into 2 different tubes. […] Cells in tube two was left in PBS. […] See also FIG. 19. Supernatant (24 hours incubation) was analysed for cytokines using the 12-[…]-12 Luminex kit. All reagents, standard and samples were prepared at room temperature and according to manufacturer's instruction. Briefly, 50 μl of standard or sample was added to wells. Microparticles were added to samples and standard and samples were incubated for 2 hours at room temperature on a horizontal orbital shaker (800 rpm). Plate was washed 3× in washing buffer using a magnetic plate. Biotin-antibody was added and incubated dark for 1 hour at room temperature on a horizontal orbital shaker (800 rpm). Plate was washed 3× in washing buffer using a magnetic plate. Streptavidin-PE was added to each well and incubated dark at room temperature on a horizontal orbital shaker (800 rpm) for 30 minutes. Plate was washed 3× in washing buffer using a magnetic plate. Microparticles were resuspended in 100 μl washing buffer, incubated for 2 minutes on a horizontal orbital shaker (800 rpm). Samples were analysed on a Bio-Rad Luminex analyzer.

## C[C@]12C=CC(=O)C=C1CC[C@@H]1[C@@H]2[C@@H](O)C[C@@]2(C)[C@H]1CC[C@]2(O)C(=O)CO [Prednisolone]
[1]; 72 hours of incubation, CsA 10 μg/ml
  T helper cells (% ): no effect
[1]; 72 hours, CsA 10 μg/ml
  M1 proliferation (CFSE): No effect
  M2 expression levels: no effect
  M2 proliferation (CFSE): No effect
[1]; 72 hours
  M1 expression levels: no effect
[2]; CsA 10 μg/ml
  M2 macrophage expression: no effect
  expression level of M1 macrophages: no effect
[2]
  macrophage cell composition: did not have an effect
[2]; reference drug treated PBMCs, CsA 10 μg/ml
  T cell activation: only slightly inhibits
[2]; reference drug treated PBMCs
  % T helper cells: higher levels
[3]; CsA 10 μg/ml
  IL-6 levels in supernatant: inhibits
[3]; CsA 10 μg/ml, 12-plex Luminex
  the other analysed cytokines, levels in supernatant: No inhibitory effect
[3]; MSCs at all ratios, CsA 10 μg/ml
  TNF-α levels in supernatant: inhibits
[3]; MSCs at all ratios
  IL12/IL23p40 levels in supernatant: inhibits
[3]; MSCs dose-dependent, CsA 10 μg/ml
  HGF levels in supernatant: inhibits

From patent US20240165311A1, “STEM CELLS FOR USE IN ECMO TECHNOLOGY” (priority 2021, published 2024)
